Measurements taken from patent US8940784B2, “Water-soluble CC-1065 analogs and their conjugates” (priority 2006, dated 2015).
Where a name gives a salt, the structure may show the parent alone.

Tests used:
[1] = system: human lung carcinoma cell line A549; assay: In vitro cytotoxicity, clone forming assay in A549 cells; format: cell-based; conditions: A549, 24 h exposure, 12 days cultivation
Procedure: In vitro cytotoxicity of compounds (+)-8a-e and (+)-4a-e: Adherent cells of line A549 were sown in triplicate in 6 multiwell plates at concentrations of 10^2, 10^3, 10^4, and 10^5 cells per cavity. Culture medium was removed after 24 h and cells were washed hi the incubation medium Ultraculture (UC, serum-free special medium, purchased from BioWhittaker Europe, Verviers, Belgium). Incubation with compounds (+)-8a-e and (+)-4a-e was then performed in Ultraculture medium at various concentrations for 24 h. All substances were used as freshly prepared solutions in DMSO (Merck, Darmstadt, Germany) diluted with incubation medium to a final concentration of 1% DMSO in the wells. After 24 h of exposure the test substance was removed and the cells were washed with fresh medium. Cultivation was done at 37° C. and 7.5% CO2 in air for 12 days. The medium was removed and the clones were dried and stained with Löffler's methylene blue (Merck, Darmstadt, Germany). They were then counted macroscopically.
The IC50 values are based on the relative clone forming rate, which was determined according to the following formula: relative clone forming rate [%]=100×(number of clones counted after exposure)/(number of clones counted in the control).
Liberation of the drugs from their glycosidic prodrugs was achieved by addition of 4.0 U·mL^−1 β-D-galactosidase (EC 3.2.1.23, Grade X, purchased from Sigma Germany, Deisenhofen, Germany) to the cells during incubation with the substances.

[2] = system: MDA-MB-231 cells (estrogen-independent human breast cancer cell line); assay: ADEPT in vivo experiment, orthotopic breast tumor SCID mouse model
Procedure: Compound (+)-8a was evaluated in an orthotopic breast tumor SCID mouse model using the ADEPT concept. Female SCID mice were inoculated with 1×10^6 MDA-MB-231 cells (estrogen-independent human breast cancer cell line) suspended in 25 μl sterile PBS in the mammary fad pat of the 4th mammary complex. Tumors were allowed to grow and ADEPT therapy was started after tumor volumes reached a detectable size. Mice were treated according to the treatment schedule in FIG. 17 and received two treatment cycles of a monoclonal anti-human urokinase plasminogen activator receptor (uPAR) antibody conjugated with β-Galactosidase, uPAR*β-Gal, in PBS followed by three injections with conjugate (+)-8a in 1% DMSO/NaCl solution. Control groups received either antibody-enzyme and 1% DMSO/NaCl solution (antibody-enzyme only group), PBS and conjugate (conjugate only group), or PBS and 1% DMSO/NaCl solution (control group).
In vivo evaluation of compound (+)-8a in an orthotopic breast tumor SCID mouse model using the ADEPT concept: Before tumor cell implantation, female SCID mice were anesthetized by peritoneal injection of 75 mg/kg ketamine hydrochloride with 15 mg/kg xylazine. 1×10^6 MDA-MB-231 cells (estrogen-independent human breast cancer cell line) suspended in 25 μl sterile phosphate-buffered saline (PBS) were then implanted into the mammary fad pat of the 4th mammary complex. After implantation, mice were inspected daily for body weight loss, general condition, and tumor formation. On day 21, animals were randomized in groups of 5-12 mice (control, antibody-enzyme only, prodrug only, and ADEPT therapy). On days 22 and 30, mice were injected intravenously with PBS (control, prodrug only groups) or 50 μg of a monoclonal anti-human urokinase plasminogen activator receptor (uPAR) antibody conjugated with β-Galactosidase, uPAR*β-Gal, in PBS (antibody-enzyme only, ADEPT therapy groups). On days 24, 26, 28, 32, 34, and 36, mice were injected intravenously with 1% DMSO/NaCl solution (control, antibody-enzyme only groups) or 104 μg of (+)-8a in 1% DMSO/NaCl solution (prodrug only, ADEPT therapy groups). Mice were sacrificed on day 38 and tumors were excised, weighed, placed in phosphate-buffered 4% formalin for 16 hours at room temperature, and embedded in paraffin. Tissue sections (2.5 μm) were obtained, stained with hematoxylin and eosin (H & E), and inspected by routine microscopic examinations. For immunohistochemistry, 2.5 μm sections from formalin-fixed and paraffin-embedded tissues, were mounted on slides, deparaffinized in xylene and rehydrated in ethanol/water dilutions. Slides for Ki67 staining were pretreated by boiling in a microwave oven (5×5 min) in citrate buffer (pH 6.0) for antigen retrieval. Endogenous peroxidases were inactivated by treatment with 3% hydrogen peroxide for 10 min. Tris-buffered 10% rabbit serum solution (Dako, Hamburg, Germany, No. X 0902) was then added to block nonspecific protein binding and slides were incubated with murine anti-human Ki67 (Dianova, Hamburg, Germany, No. dia 505) for 60 min (2 μg/ml) followed by exposure to biotinylated rabbit anti-mouse F(ab′)2-fragment (Dako, No. E 0413, 16.8 μg/ml) for 30 min. Sections were then incubated with avidin-peroxidase solution (Dako, No. P 364), stained with aminoethylcarbazole (AEC substrate solution, Sigma), rinsed in water, and finally counterstained with hematoxylin.

[3] = with addition of 4.0 U/mL β-D-galactosidase
[4] = without addition of β-D-galactosidase

SMILES	IC50 [1, 3] [nM]	IC50 [1, 4] [nM]	further results
COc1cc2[nH]c(C(=O)N3C[C@@H]([C@@H](C)Cl)c4c3cc(O[C@@H]3O[C@H](CO)[C@H](O)[C@H](O)[C@H]3O)c3ccccc43)cc2cc1OCCN(C)C [(+)-8c, [(+)-(1S,10R)-1-(10-Chloroethyl)-3-[(5-(2-(N,N-dimethylamino)ethoxy)-6-methoxy-indol-2-yl)carbonyl]-1,2-dihydro-3H-benz[e]indol-5-yl]-β-D-galactopyranoside]	0.22	940	
CC(Cl)C1CN(C(=O)c2cc3cc(OCCN(C)C)ccc3[nH]2)c2cc(O)c3ccccc3c21 (single isomer, unassigned; (+)) [(+)-4a, (1,10)-anti-1-(10-Chloroethyl)-5-hydroxy-3-[(5-(2-(N,N-dimethylamino)ethoxy)indol-2-yl)carbonyl]-1,2-dihydro-3H-benz[e]indole-hydrochloride]		0.75	
C[C@@H](Cl)[C@@H]1CN(C(=O)c2cc3cc(NC(=O)CN(C)C)ccc3[nH]2)c2cc(O[C@@H]3O[C@H](CO)[C@H](O)[C@H](O)[C@H]3O)c3ccccc3c21 [(+)-8e]	5.9	7700	
C[C@@H](Cl)[C@@H]1CN(C(=O)c2cc3cc(OCCN(C)C)ccc3[nH]2)c2cc(O[C@@H]3O[C@H](CO)[C@H](O)[C@H](O)[C@H]3O)c3ccccc3c21 [(1S,10R)-8a and (1R,10S)-8a′, [(1,10)-anti-1-(10-Chloroethyl)-3-[(5-(2-(N,N-dimethylamino)ethoxy)-indol-2-yl)carbonyl]-1,2-dihydro-3H-benz[e]indol-5-yl]-β-D-galactopyranoside]	1.2	7900	
CC(Cl)C1CN(C(=O)c2cc3cc(OCCN4CCOCC4)ccc3[nH]2)c2cc(O)c3ccccc3c21 (single isomer, unassigned; (+)) [(+)-4b, (+)-{(1,10)-anti-1-(10-Chloroethyl)-5-hydroxy-3-[(5-(2-(morpholin-4-yl)ethoxy)indol-2-yl)carbonyl]-1,2-dihydro-3H-benz[e]indole-hydrochloride}]		3.7	
COc1cc2[nH]c(C(=O)N3CC(C(C)Cl)c4c3cc(O)c3ccccc43)cc2cc1OCCN(C)C (single isomer, unassigned; (+)) [(+)-4c, (+)-{(1,10)-anti-1-(10-Chloroethyl)-5-hydroxy-3-[(5-(2-(N,N-dimethylamino)ethoxy)-6-methoxy-indol-2-yl)carbonyl]-1,2-dihydro-3H-benz[e]indole-hydrochloride}]		0.2	
C[C@@H](Cl)[C@@H]1CN(C(=O)c2cc3cc(OCCN(C)C)ccc3[nH]2)c2cc(O[C@@H]3O[C@H](CO)[C@H](O)[C@H](O)[C@H]3O)c3ccccc3c21 [(+)-8a, [(1,10)-anti-1-(10-Chloroethyl)-3-[(5-(2-(N,N-dimethylamino)ethoxy)-indol-2-yl)carbonyl]-1,2-dihydro-3H-benz[e]indol-5-yl]-β-D-galactopyranoside]			IC50 ([1]; with addition of 4.0 U/mL β-D-galactosidase, listed as (1S,10R)-8a): 0.75 nM; IC50 ([1]; without addition of β-D-galactosidase, listed as (1S,10R)-8a): 3600 nM; average primary tumor volume ([2]; ADEPT therapy (uPAR*β-Gal followed by (+)-8a i.v.), after one treatment cycle): 0.23±0.07 cm^3; mean tumor volume ([2]; ADEPT therapy (uPAR*β-Gal followed by (+)-8a i.v.), after two treatment cycles): 0.33±0.13 cm^3; necrotic tissue within tumors ([2]; ADEPT therapy versus vehicle-treated mice): more necrotic tissue within tumors; tolerability ([2]; ADEPT therapy, all animals): well tolerated; blood parameters ([2]; treated mice compared to controls): not altered; inhibitory effect on tumor growth with respect to vehicle control ([2]; treatment with the substance alone (antibody-enzyme only or conjugate only group)): no inhibitory effect
CC(Cl)C1CN(C(=O)c2cc3cc(NC(=O)CN(C)C)ccc3[nH]2)c2cc(O)c3ccccc3c21 (single isomer, unassigned; (+)) [(+)-4e]		3.8	
CC(Cl)C1CN(C(=O)c2cc3cc(OCCN4CCOCC4)ccc3[nH]2)c2cc(O[C@@H]3O[C@H](CO)[C@H](O)[C@H](O)[C@H]3O)c3ccccc3c21 (single isomer, unassigned; (+)) [(+)-8b, [(+)-(1,10)-anti-1-(10-Chloroethyl)-3-[(5-(2-(morpholin-4-yl)ethoxy)-indol-2-yl)carbonyl]-1,2-dihydro-3H-benz[e]indol-5-yl]-β-D-galactopyranoside]	2.5	1500	
CC(Cl)C1CN(C(=O)c2cc3cc(OCC4CCN(C)CC4)ccc3[nH]2)c2cc(O[C@@H]3O[C@H](CO)[C@H](O)[C@H](O)[C@H]3O)c3ccccc3c21 (single isomer, unassigned; (+)) [(+)-8d, [(+)-(1,10)-anti-1-(10-Chloroethyl)-3-[(5-((1-methylpiperidin-4-yl)methoxy)-indol-2-yl)carbonyl]-1,2-dihydro-3H-benz[e]indol-5-yl]-β-D-galactopyranoside]	0.75	830	
CC(Cl)C1CN(C(=O)c2cc3cc(OCC4CCN(C)CC4)ccc3[nH]2)c2cc(O)c3ccccc3c21 (single isomer, unassigned; (+)) [(+)-4d, (+)-{(1,10)-anti-1-(10-Chloroethyl)-5-hydroxy-3-[(5-((1-methylpiperidin-4-yl)methoxy)indol-2-yl)carbonyl]-1,2-dihydro-3H-benz[e]indole-hydrochloride}]		0.8	
